Source: PMC11062899, “De novo development of small cyclic peptides that are orally bioavailable” (Nature Chemical Biology, 2023)
“And” between values parts separate entries of the source, which are not always exact repeats. Identical values can stand only once. Blank lines part the entries; values can stand above or below the compound they belong to.

How the values were obtained:
[1] = Passive artificial membrane permeability (PAMPA); settings: for PAMPA permeability: % permeability: 50 μM, 12–18 h, acceptor concentration relative to equilibrium; for Papp at 50 μM / Permeability% Average / Permeability% R1 / Permeability% R3: PAMPA; for Papp at 50 μM: pH 7.4; for Permeability% Average: average of R1-R3; for Permeability% R1: replicate R1; for Permeability% R1 / Permeability% R3: TIC of top well sample relative to sample at theoretical equilibrium; for Permeability% R3: replicate R3
[2] = Metabolic stability in rat liver microsomes (RLMs); settings: rat, microsomes
[3] = Peptide stability in simulated intestinal fluid (SIF); format: in vitro ADME, porcine; settings: simulated gi fluid; 8 h, 37 °C, pH 6.8; read-out: Proteolytic stability: SIF (8 h) % remaining
In short: (§1)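 Peptide from a 1 mM DMSO stock was added to fluid pre-warmed at 37 °C. SGF was pH 1.2 NaCl with porcine pepsin (0.32 g per 100 ml), and SIF was pH 6.8 potassium phosphate with porcine pancreatin (1 g per 100 ml). Supernatant peptide was quantified by LC–MS, with residual expressed as T1/T0.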

[4] = test system: porcine pancreatin; test: as above; format: in vitro ADME; settings: after 8 h vs 0 h (TIC); for SIF stability, Residual peptide Average: average of R1-R3; for SIF stability, Residual peptide: single replicates R1-R3
In short: as §1

[5] = biological target: human α-thrombin (Homo sapiens, UniProt P00734); test: Protease inhibition, Ki for human α-thrombin (fluorogenic substrate Z-Gly-Gly-Arg-AMC); format: biochemical; settings: replicates R1-R3
In short: (§2)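 Inhibition was measured as AMC fluorescence from 50 μM substrate, monitored for 30 min at 25 °C, relative to a peptide-free control. Human and rat enzymes were present at 2 nM and 3 nM final, respectively, in 50 mM Tris-HCl pH 7.4, 150 mM NaCl, 10 mM MgCl2, 1 mM CaCl2. Ki derives from fitted IC50 via Cheng–Prusoff.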

[6] = biological target: T1, porcine pepsin (Sus scrofa, UniProt P00791); test: Peptide stability in simulated gastric fluid (SGF); format: in vitro ADME; settings: for SGF stability, Residual peptide Average / SGF stability, Residual peptide: after 8 h vs 0 h (TIC); for SGF stability, Residual peptide Average: average of R1-R3; for SGF stability, Residual peptide: single replicates R1-R3; for remaining at 8 h: simulated gi fluid, 37 °C, pH 1.2, read-out: Proteolytic stability: SGF (8 h) % remaining
T1 construct: 0.32 g of porcine pepsin (Sigma-Aldrich, P7125) was dissolved under gentle agitation; purchased Sigma-Aldrich P7125
In short: as §1

[7] = biological target: T2, rat α-thrombin (Rattus norvegicus, UniProt P18292); test: Protease inhibition, Ki for rat α-thrombin (fluorogenic substrate Z-Gly-Gly-Arg-AMC); format: biochemical; settings: replicates R1-R3
T2 construct: rat α-thrombin (Molecular Innovations) were used at final concentrations of 2 nM and 3 nM; purchased Molecular Innovations
In short: as §2

[8] = CL (ul/min/mg protein) R1, RLM CL, replicate R1
[9] = CL (ul/min/mg protein) R2, RLM CL, replicate R2
[10] = CL (ul/min/mg protein) R3, RLM CL, replicate R3
[11] = Half Life (min) R1, RLM metabolic stability, replicate R1, 0-60 min
[12] = Half Life (min) R2, RLM metabolic stability, replicate R2, 0-60 min
[13] = Half Life (min) R3, RLM metabolic stability, replicate R3, 0-60 min
[14] = Metabolic stability: RLM CL (ul/min/mg), RLMs, mean and SD, three measurements
[15] = peptide 1.33E+02 uM, slope of proteolytic substrate cleavage over time

T1 sequence (P00791 60-385): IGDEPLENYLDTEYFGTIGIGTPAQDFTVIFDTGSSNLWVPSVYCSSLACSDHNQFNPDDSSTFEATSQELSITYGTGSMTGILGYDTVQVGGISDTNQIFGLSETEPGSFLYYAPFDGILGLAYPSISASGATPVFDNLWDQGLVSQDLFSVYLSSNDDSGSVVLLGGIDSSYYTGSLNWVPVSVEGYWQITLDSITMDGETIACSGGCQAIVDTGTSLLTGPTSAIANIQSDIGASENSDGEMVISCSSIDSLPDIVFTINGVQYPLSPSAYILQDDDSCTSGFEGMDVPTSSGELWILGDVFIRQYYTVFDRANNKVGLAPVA

PAMPA permeability: % permeability [1]: 30 ± 7% | Papp at 50 μM [1]: 2.29 ×10⁻⁶ cm/s | Permeability% Average [1]: 29.5% | Permeability% R1 [1]: 35.05% | Permeability% R3 [1]: 31.19% | microsomal CLint [2, 8]: 81.1 µL/min/mg | microsomal CLint [2, 9]: 96.1 µL/min/mg | microsomal CLint [2, 10]: 78 µL/min/mg | half-life [2, 11]: 17.1 min | half-life [2, 12]: 14.4 min | half-life [2, 13]: 17.8 min | half-life ([2]; Metabolic stability: Half life T1/2 (min), RLMs, mean and SD, three measurements): 16.4 ± 1.4 min | microsomal CLint [2, 14]: 85 ± 8 µL/min/mg | remaining at 8 h [3]: 94 ± 12% | SIF stability, Residual peptide Average [4]: 94.01 | SIF stability, Residual peptide [4]: 86.19 and 87.95 and 107.89 | Human alpha thrombin inhibition, slope normalized to DMSO ([5]; peptide 1.02E-03 uM): 100.6 and 102.2 and 99.4 | Human alpha thrombin inhibition, slope normalized to DMSO ([5]; peptide 1.04E+00 uM): 91.1 and 87.4 and 92.0 | Human alpha thrombin inhibition, slope normalized to DMSO ([5]; peptide 1.27E-04 uM): 100.4 and 99.0 and 100.8 | Human alpha thrombin inhibition, slope normalized to DMSO ([5]; peptide 1.30E-01 uM): 103.2 and 98.5 and 101.7 | Human alpha thrombin inhibition, slope normalized to DMSO [5, 15]: 16.8 and 18.7 and 23.0 | Human alpha thrombin inhibition, slope normalized to DMSO ([5]; peptide 1.63E-02 uM): 79.4 and 98.4 and 92.1 | Human alpha thrombin inhibition, slope normalized to DMSO ([5]; peptide 1.67E+01 uM): 53.5 and 53.3 and 56.4 | Human alpha thrombin inhibition, slope normalized to DMSO ([5]; peptide 2.03E-03 uM): 77.9 and 96.7 and 93.1 | Human alpha thrombin inhibition, slope normalized to DMSO ([5]; peptide 2.08E+00 uM): 88.5 and 72.9 and 90.5 | Human alpha thrombin inhibition, slope normalized to DMSO ([5]; peptide 2.54E-04 uM): 100.6 and 92.1 and 94.0 | Human alpha thrombin inhibition, slope normalized to DMSO ([5]; peptide 2.60E-01 uM): 98.5 and 95.3 and 96.4 | Human alpha thrombin inhibition, slope normalized to DMSO ([5]; peptide 3.18E-05 uM): 102.4 and 100.9 (2×) | Human alpha thrombin inhibition, slope normalized to DMSO ([5]; peptide 3.26E-02 uM): 99.5 and 98.1 and 103.6 | Human alpha thrombin inhibition, slope normalized to DMSO ([5]; peptide 3.33E+01 uM): 35.9 and 38.0 and 41.6 | Human alpha thrombin inhibition, slope normalized to DMSO ([5]; peptide 4.07E-03 uM): 103.3 and 98.8 and 95.5 | Human alpha thrombin inhibition, slope normalized to DMSO ([5]; peptide 4.17E+00 uM): 79.3 and 79.5 and 79.0 | Human alpha thrombin inhibition, slope normalized to DMSO ([5]; peptide 5.09E-04 uM): 102.1 and 100.7 and 91.1 | Human alpha thrombin inhibition, slope normalized to DMSO ([5]; peptide 5.21E-01 uM): 99.8 and 93.6 and 95.9 | Human alpha thrombin inhibition, slope normalized to DMSO ([5]; peptide 6.36E-05 uM): 102.4 and 110.3 and 102.0 | Human alpha thrombin inhibition, slope normalized to DMSO ([5]; peptide 6.51E-02 uM): 102.8 and 95.7 and 101.3 | Human alpha thrombin inhibition, slope normalized to DMSO ([5]; peptide 6.67E+01 uM): 23.2 and 24.0 and 29.0 | Human alpha thrombin inhibition, slope normalized to DMSO ([5]; peptide 8.14E-03 uM): 99.1 and 108.8 and 87.5 | Human alpha thrombin inhibition, slope normalized to DMSO ([5]; peptide 8.33E+00 uM): 72.2 and 85.5 and 69.3 | SGF stability, Residual peptide Average [6]: 95.21 | SGF stability, Residual peptide [6]: 100.04 and 92.83 and 92.76 | remaining at 8 h [6]: 95 ± 4% | Rat alpha thrombin inhibition, slope normalized to DMSO [7, 15]: 12.2 (2×) and 11.8 | Rat alpha thrombin inhibition, slope normalized to DMSO ([7]; peptide 1.67E+01 uM): 38.3 and 37.3 and 38.4 | Rat alpha thrombin inhibition, slope normalized to DMSO ([7]; peptide 2.08E+00 uM): 79.7 and 78.5 and 79.5 | Rat alpha thrombin inhibition, slope normalized to DMSO ([7]; peptide 3.33E+01 uM): 24.3 and 23.3 and 23.8 | Rat alpha thrombin inhibition, slope normalized to DMSO ([7]; peptide 4.17E+00 uM): 68.5 and 68.7 and 67.7 | Rat alpha thrombin inhibition, slope normalized to DMSO ([7]; peptide 6.67E+01 uM): 14.7 and 14.3 and 13.4 | Rat alpha thrombin inhibition, slope normalized to DMSO ([7]; peptide 8.33E+00 uM): 56.8 and 54.3 and 57.8
SMILES: O=C(N[C@H]1CSCc2cccc(n2)CSCCNC(=O)[C@H](Cc2ccccn2)NC(=O)C2(CCCC2)NC1=O)c1ccc(Cl)s1 [compound 28]

PAMPA permeability: % permeability [1]: 0.16 ± 0.08% | Papp at 50 μM [1]: 0.00933 ×10⁻⁶ cm/s | Permeability% Average [1]: 0.157% | Permeability% R1 [1]: 0.22% | Permeability% R3 [1]: 0.18% | microsomal CLint [2, 8]: 10.5 µL/min/mg | microsomal CLint [2, 9]: 5.63 µL/min/mg | microsomal CLint [2, 10]: 8.11 µL/min/mg | half-life [2, 11]: > 60 min | half-life [2, 12]: > 60 min | half-life [2, 13]: > 60 min | microsomal CLint [2, 14]: 8.1 ± 2 µL/min/mg | remaining at 8 h [3]: 92 ± 16% | SIF stability, Residual peptide Average [4]: 92.07 | SIF stability, Residual peptide [4]: 101.03 and 73.69 and 101.48 | Human alpha thrombin inhibition, slope normalized to DMSO ([5]; peptide 1.02E-03 uM): 85.3 and 95.8 and 95.4 | Human alpha thrombin inhibition, slope normalized to DMSO ([5]; peptide 1.04E+00 uM): 95.4 and 93.0 and 98.3 | Human alpha thrombin inhibition, slope normalized to DMSO ([5]; peptide 1.27E-04 uM): 99.0 and 98.5 and 95.5 | Human alpha thrombin inhibition, slope normalized to DMSO ([5]; peptide 1.30E-01 uM): 95.8 and 97.3 and 101.8 | Human alpha thrombin inhibition, slope normalized to DMSO [5, 15]: 27.0 and 31.2 and 38.6 | Human alpha thrombin inhibition, slope normalized to DMSO ([5]; peptide 1.63E-02 uM): 73.4 and 96.6 and 101.4 | Human alpha thrombin inhibition, slope normalized to DMSO ([5]; peptide 1.67E+01 uM): 71.8 and 71.9 and 74.8 | Human alpha thrombin inhibition, slope normalized to DMSO ([5]; peptide 2.03E-03 uM): 97.6 and 95.9 and 99.5 | Human alpha thrombin inhibition, slope normalized to DMSO ([5]; peptide 2.08E+00 uM): 93.5 and 84.6 and 95.9 | Human alpha thrombin inhibition, slope normalized to DMSO ([5]; peptide 2.54E-04 uM): 96.0 and 96.2 and 102.6 | Human alpha thrombin inhibition, slope normalized to DMSO ([5]; peptide 2.60E-01 uM): 94.7 and 95.0 and 96.9 | Human alpha thrombin inhibition, slope normalized to DMSO ([5]; peptide 3.18E-05 uM): 99.1 and 98.5 and 101.4 | Human alpha thrombin inhibition, slope normalized to DMSO ([5]; peptide 3.26E-02 uM): 99.8 and 95.1 and 95.9 | Human alpha thrombin inhibition, slope normalized to DMSO ([5]; peptide 3.33E+01 uM): 58.8 and 60.9 and 67.1 | Human alpha thrombin inhibition, slope normalized to DMSO ([5]; peptide 4.07E-03 uM): 99.1 and 95.8 and 99.3 | Human alpha thrombin inhibition, slope normalized to DMSO ([5]; peptide 4.17E+00 uM): 86.3 and 86.6 and 97.3 | Human alpha thrombin inhibition, slope normalized to DMSO ([5]; peptide 5.09E-04 uM): 101.5 and 95.7 and 97.4 | Human alpha thrombin inhibition, slope normalized to DMSO ([5]; peptide 5.21E-01 uM): 92.8 and 93.8 and 98.4 | Human alpha thrombin inhibition, slope normalized to DMSO ([5]; peptide 6.36E-05 uM): 106.0 and 98.0 and 105.2 | Human alpha thrombin inhibition, slope normalized to DMSO ([5]; peptide 6.51E-02 uM): 96.1 and 98.8 and 99.3 | Human alpha thrombin inhibition, slope normalized to DMSO ([5]; peptide 6.67E+01 uM): 48.6 and 47.5 and 55.0 | Human alpha thrombin inhibition, slope normalized to DMSO ([5]; peptide 8.14E-03 uM): 95.7 and 98.2 and 99.1 | Human alpha thrombin inhibition, slope normalized to DMSO ([5]; peptide 8.33E+00 uM): 83.7 and 83.2 and 97.0 | SGF stability, Residual peptide Average [6]: 100.77 | SGF stability, Residual peptide [6]: 105.91 and 102.30 and 94.11 | remaining at 8 h [6]: 101 ± 8% | Rat alpha thrombin inhibition, slope normalized to DMSO [7, 15]: 11.0 and 10.6 and 9.7 | Rat alpha thrombin inhibition, slope normalized to DMSO ([7]; peptide 1.67E+01 uM): 45.8 and 45.5 and 45.1 | Rat alpha thrombin inhibition, slope normalized to DMSO ([7]; peptide 2.08E+00 uM): 86.8 and 87.3 and 87.0 | Rat alpha thrombin inhibition, slope normalized to DMSO ([7]; peptide 3.33E+01 uM): 28.5 and 28.7 and 27.9 | Rat alpha thrombin inhibition, slope normalized to DMSO ([7]; peptide 4.17E+00 uM): 77.5 and 87.0 and 76.0 | Rat alpha thrombin inhibition, slope normalized to DMSO ([7]; peptide 6.67E+01 uM): 19.6 and 18.1 and 18.5 | Rat alpha thrombin inhibition, slope normalized to DMSO ([7]; peptide 8.33E+00 uM): 63.7 and 62.1 and 64.2
SMILES: O=C(N[C@H]1CSCc2cccc(n2)CSCCNC(=O)[C@H](Cc2c[nH]cn2)NC(=O)C2(CCCC2)NC1=O)c1ccc(Cl)s1 [compound 29]
